Test system: 435261-313-R-J1-PDC complex spheroid viability
Assay: Anticancer human tumor 435261-313-R-J1-PDC patient-derived colon adenocarcinoma cell line growth inhibition [GQUAD]
Conditions: for IC50: curve of first compound; for viability, T/C: stronger effect = lower value
Source text: DNA G-quadruplex Stabilizer Agents in Combinations in Complex Spheroids
A high-throughput screen of multi-cell type tumor spheroids was designed to identify active combinations of DNA G-quadruplex stabilizer agents and targeted small molecules. Complex spheroids include a stromal component modeled by human endothelial cells (HUVEC) and fibroblasts modeled by human mesenchymal stem cells (MSCs). The concentration ranges selected for each drug and investigational agent were based upon clinically achievable concentrations if the clinical Cmax of the agent was known.
Compounds. The drugs and investigational agents: pidnarulex (CX-5461; NSC782164), APTO-253 (NSC789042), BRACO-19 (NSC847499), peposertib (NSC802822), ceralasertib (NSC780249), elimusertib (NSC800525), camonsertib (NSC841442), AZD-1390 (NSC803789), olaparib (NSC753686), talazoparib (NSC767125), ART-558 (NSC835418), sotorasib (NSC818433), MRTX-1133 (NSC836407), SN-38 (NSC673596), topotecan (NSC609699), etoposide (NSC141540), doxorubicin (NSC123127), gemcitabine (NSC613327), 5-fluorouracil (NSC19893), paclitaxel (NSC125973), vemurafenib (NSC761431), panobinostat (NSC761190), R-306465 (JNJ-16241199; NSC773264), adavosertib (NSC754352), TP-3654 (NSC805149), carboplatin (NSC241240), KSQ-4279 (NSC840948), and staurosporine (NSC755774) were obtained from the National Cancer Institute (NCI) Developmental Therapeutics Program Chemical Repository (34). The FDA-approved anticancer drug set is available from the NCI Developmental Therapeutics Program. […] The stock solutions were prepared in dimethyl sulfoxide (DMSO, Sigma-Aldrich, St. Louis, MO, cat. D2650) at 800-fold the tested concentration and stored at -70 degrees C prior to their use. All drugs and investigational agents were tested over a range starting from a high concentration at or near the clinical Cmax and decreasing in half-log increments. If the clinical Cmax for an agent had not been determined, the highest concentration tested was 10 microM.
2.3 Cell Culture. All cells were maintained in an incubator at 37 degrees C and 5% CO2 with 95% humidity. The PDC lines were cultured according to standard operating procedures established by the NCI PDMR. All PDCs were thawed and cultured in Matrigel-coated flasks prepared with a working solution of 1X Ham's F-12 nutrient mix, without supplementation (Invitrogen, cat. 11765054), 100 U/mL penicillin-streptomycin (Invitrogen, cat. 15140122), and 2.5% Matrigel (Corning Inc., cat. 354248) for the first three passages. The 857933-349-R-J2-PDC line was cultured in 6C/Colon 1B media, which includes advanced DMEM/F-12 (Thermo Fisher Scientific, cat. 12634028), 10 mM HEPES (Thermo Fisher Scientific, cat. 15630080), 1X GlutaMAX supplement (Thermo Fisher Scientific, cat. 35050061), 0.1 mg/mL primocin (InvivoGen, cat. ant-pm-2), 10% defined fetal bovine serum, heat inactivated (HyClone Laboratories Inc., cat. SH30070.03HI), 50% L-WRN conditioned media (ATCC, cat. CRL-3276), 1.25 mM N-Acetyl-L-cysteine (Sigma-Aldrich, cat. A9165), 10 mM nicotinamide (Sigma-Aldrich, cat. N0636), 1X B-27 supplement (Thermo Fisher Scientific, cat. 17504044), 1X N-2 supplement (Thermo Fisher Scientific, cat. 17502048), 10 microM Y-27632 dihydrochloride (Tocris Bioscience, cat. 1254), and 50 ng/mL human EGF recombinant protein (Thermo Fisher Scientific, cat. PHG0311). The 485176-168-R4-J1-PDC line was cultured in Panc media, which includes all 6C/Colon 1B media components plus 100 ng/mL human FGF-10 (Thermo Fisher Scientific, cat. 100-26), 500 nM SB-431542 (Selleckchem, cat. S1067), and gastrin (Tocris, cat. 3006).
[…]

[1] = second compound 0.0316 µM, first compound 0.0316 µM
[2] = second compound 0.0316 µM, first compound 0.1 µM
[3] = second compound 0.0316 µM, first compound 0.316 µM
[4] = second compound 0.0316 µM, first compound 1 µM
[5] = second compound 0.0316 µM, first compound 3.16 µM
[6] = second compound 0.0316 µM, first compound 10 µM
[7] = second compound 0.1 µM, first compound 0.0316 µM
[8] = second compound 0.1 µM, first compound 0.1 µM
[9] = second compound 0.1 µM, first compound 0.316 µM
[10] = second compound 0.1 µM, first compound 1 µM
[11] = second compound 0.1 µM, first compound 3.16 µM
[12] = second compound 0.1 µM, first compound 10 µM
[13] = second compound 0.316 µM, first compound 0.0316 µM
[14] = second compound 0.316 µM, first compound 0.1 µM
[15] = second compound 0.316 µM, first compound 0.316 µM
[16] = second compound 0.316 µM, first compound 1 µM
[17] = second compound 0.316 µM, first compound 3.16 µM
[18] = second compound 0.316 µM, first compound 10 µM
[19] = second compound 1 µM, first compound 0.0316 µM
[20] = second compound 1 µM, first compound 0.1 µM
[21] = second compound 1 µM, first compound 0.316 µM
[22] = second compound 1 µM, first compound 1 µM
[23] = second compound 1 µM, first compound 3.16 µM
[24] = second compound 1 µM, first compound 10 µM
[25] = second compound 3.16 µM, first compound 0.0316 µM
[26] = second compound 3.16 µM, first compound 0.1 µM
[27] = second compound 3.16 µM, first compound 0.316 µM
[28] = second compound 3.16 µM, first compound 1 µM
[29] = second compound 3.16 µM, first compound 3.16 µM
[30] = second compound 3.16 µM, first compound 10 µM
[31] = second compound 10 µM, first compound 0.0316 µM
[32] = second compound 10 µM, first compound 0.1 µM
[33] = second compound 10 µM, first compound 0.316 µM
[34] = second compound 10 µM, first compound 1 µM
[35] = second compound 10 µM, first compound 3.16 µM
[36] = second compound 10 µM, first compound 10 µM
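Note: spheroids exposed to the agents for seven days before readout.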
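Throughout, for viability, T/C: percent of vehicle control viability with DMSO wells as 100%.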

## C=CCn1c(=O)c2cnc(Nc3ccc(N4CCN(C)CC4)cc3)nc2n1-c1cccc(C(C)(C)O)n1 + CN(C)c1ccc(Nc2c3ccc(NC(=O)CCN4CCCC4)cc3nc3cc(NC(=O)CCN4CCCC4)ccc23)cc1
Second compound 0.0316 µM
  IC50: > 10000 nM
Second compound 0.1 µM
  IC50: > 10000 nM
Second compound 0.316 µM
  IC50: 7580 nM
Second compound 1 µM
  IC50: > 10000 nM
Second compound 3.16 µM
  IC50: > 10000 nM
Second compound 10 µM
  IC50: 353 nM
[1]
  viability, T/C: 128%
[2]
  viability, T/C: 145%
[3]
  viability, T/C: 84.1%
[4]
  viability, T/C: 103%
[5]
  viability, T/C: 81.8%
[6]
  viability, T/C: 65.2%
[7]
  viability, T/C: 96.4%
[8]
  viability, T/C: 89.1%
[9]
  viability, T/C: 87.9%
[10]
  viability, T/C: 69.7%
[11]
  viability, T/C: 91.7%
[12]
  viability, T/C: 73%
[13]
  viability, T/C: 92.7%
[14]
  viability, T/C: 81.5%
[15]
  viability, T/C: 86.6%
[16]
  viability, T/C: 78.1%
[17]
  viability, T/C: 64%
[18]
  viability, T/C: 45.5%
[19]
  viability, T/C: 80.8%
[20]
  viability, T/C: 98.7%
[21]
  viability, T/C: 66.6%
[22]
  viability, T/C: 90.4%
[23]
  viability, T/C: 75.8%
[24]
  viability, T/C: 54.6%
[25]
  viability, T/C: 50.9%
[26]
  viability, T/C: 48.2%
[27]
  viability, T/C: 63.4%
[28]
  viability, T/C: 70.1%
[29]
  viability, T/C: 57.8%
[30]
  viability, T/C: 34%
[31]
  viability, T/C: 32.7%
[32]
  viability, T/C: 90.5%
[33]
  viability, T/C: 44.8%
[34]
  viability, T/C: 31.8%
[35]
  viability, T/C: 23.9%
[36]
  viability, T/C: 9.35%

## CC1COCCN1c1cc(-c2ccnn2C)c2ccnc(-c3ccn[nH]3)c2n1 (centres undefined) + CN(C)c1ccc(Nc2c3ccc(NC(=O)CCN4CCCC4)cc3nc3cc(NC(=O)CCN4CCCC4)ccc23)cc1
Second compound 0.0316 µM
  IC50: 804 nM
Second compound 0.1 µM
  IC50: 500 nM
Second compound 0.316 µM
  IC50: 725 nM
Second compound 1 µM
  IC50: 1030 nM
Second compound 3.16 µM
  IC50: 145 nM
Second compound 10 µM
  IC50: < 31.6 nM
[1]
  viability, T/C: 87%
[2]
  viability, T/C: 76%
[3]
  viability, T/C: 76.2%
[4]
  viability, T/C: 43.6%
[5]
  viability, T/C: 28.8%
[6]
  viability, T/C: 25.2%
[7]
  viability, T/C: 88.4%
[8]
  viability, T/C: 85.9%
[9]
  viability, T/C: 55.9%
[10]
  viability, T/C: 38.5%
[11]
  viability, T/C: 38.8%
[12]
  viability, T/C: 23.1%
[13]
  viability, T/C: 71.8%
[14]
  viability, T/C: 80.7%
[15]
  viability, T/C: 60.4%
[16]
  viability, T/C: 44.5%
[17]
  viability, T/C: 32.8%
[18]
  viability, T/C: 22.9%
[19]
  viability, T/C: 64.6%
[20]
  viability, T/C: 69.5%
[21]
  viability, T/C: 61.8%
[22]
  viability, T/C: 48.2%
[23]
  viability, T/C: 35%
[24]
  viability, T/C: 17.2%
[25]
  viability, T/C: 89%
[26]
  viability, T/C: 48.3%
[27]
  viability, T/C: 41.5%
[28]
  viability, T/C: 24.5%
[29]
  viability, T/C: 16.4%
[30]
  viability, T/C: 4.38%
[31]
  viability, T/C: 27.1%
[32]
  viability, T/C: 22.1%
[33]
  viability, T/C: 21.6%
[34]
  viability, T/C: 14.1%
[35]
  viability, T/C: 6.17%
[36]
  viability, T/C: 1.51%
